Data reported in publication PMC9692677, “Virtual Cocrystal Screening of Adefovir Dipivoxyl: Identification of New Solid Forms with Improved Dissolution and Permeation Profiles” (Pharmaceutics, 2022).
Values after ≈ are worked out from the molar mass of the structure shown. Values joined by “and” are separate entries in the source; they are usually repeats but may differ in a detail not shown here. Equal values may be shown once. Read-outs that look alike come from different tables or passages of the source.

What was measured:
Assay type in all cases: physicochemical
pKa determination = experiment: pKa determination
[1] = Intrinsic dissolution at individual pH sectors (GLpKa, 3 mm disks, 30 min); conditions: for solubility at 30 min: acetate–phosphate buffer with KCl; for Dissolution Rate: fit of Noyes–Whitney equation; for % Dissolved at t = 30 min: single-pH sector
[2] = XRPD analysis of the tablet surface after the single-pH dissolution experiments
Experimental: X-ray powder diffraction (XRPD) patterns of new cocrystals of AD were measured on a PANalytical (Malvern, UK) X’Pert PRO MPD (transmission configuration with Cu Kα radiation, λ = 1.54187 Å) with a focalizing elliptic mirror and a PIXcel detector and a maximum detector’s active length of 3.347°. Transmission geometry configuration included a convergent beam with a focalizing mirror, a flat sample sandwiched between low absorbing films measuring from 1 to 40° in 2θ, a step size of 0.026° and a measuring time of 8 to 30 min at room temperature (25 °C). Capillary geometry has been used with AD–Resorcinol (Form I) placed in a glass capillary (Lindemman) 0.5 mm in diameter measuring from 2 to 70° in 2θ, with a step size of 0.013° and a total measuring time of 18 h. The powder diffractograms were indexed and the lattice parameters were refined by means of Le Bail fits by means of Dicvol04 [35], and the space group was determined from the systematic absences.
The first set of studies was performed at different pH sectors (1.5, 4.0, 5.5 and 7.4) which are typically encountered in the gastrointestinal tract (GIT), and individual dissolution rates were determined at each pH sector. To perform these experiments, disks of 3mm diameter containing 6–10 mg of the drug or cocrystal were prepared by applying a constant pressure of 0.1 ton for 2 min with a manual hydraulic tablet press (Applied Measurements Specac Ltd, Orpington UK). The tablet was placed in a holder, and only one side of the tablet was exposed to the dissolution medium. The total exposed surface area was 0.07 cm^2. A total of 1.5 mL of 0.125 M acetate–phosphate buffer at pH 1.6 was introduced into the vial without wetting the tablet surface. The instrument then automatically added 13.5 mL of 0.15 M KCl solution and adjusted the pH to the required value (see Table S2 for exact experimental details). Spectra collection started immediately after. Spectra were recorded every 30 s for 30 min. The medium was stirred at a constant rate. The solid state of the remaining disks was analyzed using XRPD.
The XRPD analysis of the tablet surface after the dissolution experiments confirms that there is some transformation of the solid form. The highest transformation occurs for AD tablets, where 20% of the initial AD (Form I) is transformed into the dihydrate. This transformation is reproducible, as deduced by the low error bars in the dissolution profiles. In the case of cocrystals, they mainly remain in its original solid form; the 5–10% of the free AD (Form I) observed in the analysis of the tablets could be the result of AD deposition during the experiments since the saturation concentration is reached very quickly, rather than a solid phase transformation in the surface of the tablet.

[3] = Dissolution in a four-pH sector sequence (pH 1.5 to 7.4, 30 min at each pH, GLpKa)
Experimental: A second set of experiments was performed with the same instrument. However, determinations were made in a full sequence of pHs (from 1.5 to 7.4) maintained for 30 min at each individual pH. To change the pH, KOH was added to the medium (Table S3).
Compared to the single-pH experiments, the four-pH sectors determination provides dynamic information of the dissolution behavior of the compounds along the GIT. Now, the dissolution test starts at pH 1.5, and dissolution is monitored for 30 min. Then, the pH is raised to 4.0, 5.5, and finally, 7.4, monitoring dissolution for 30 min at each pH.

[4] = Biphasic four-pH sector dissolution with 1-decanol lipid layer (Pion inForm); conditions: for Transfer of AD towards the organic layer (1-decanol): pH 4.0 sector
Experimental: The third set of measurements were performed using a Pion inForm automated titrator system from Pion (Pion-Inc., Billerica, MA, USA, www.pion-inc.com) with an incorporated UV-Vis spectrophotometer to acquire the spectrophotometric data. The optical system also consisted of a photodiode array detector with a deuterium lamp and included two fiber optic dip probes. The titrator module included a temperature controller (a Peltier device with in-situ thermocouple), pH electrode, an overhead stirrer and motorized dispensers for the automatic delivery of assay titrants and reagents via capillaries. The instrumentation was operated by inForm Control and Assay Designer software (version 1.6.0.0). The Pion inForm system was used for the biphasic dissolution studies. Samples were prepared as described previously, and studies were performed consecutively through the four different pH sectors, with the addition of a lipid layer (1-decanol) in the second sector to mimic the absorption in the GIT. The dissolution media consisted of 40 mL of aqueous solution, which was added automatically to an 80 mL dissolution vessel and brought to 25 °C (±0.1 °C). Once the media were adjusted to the starting pH and temperature, each sample was added automatically, and data collection was started from the point of sample introduction. The lipid layer (30 mL) was added in the second pH sector after the pH was adjusted to 4.0 (see Table S4 for exact experimental details). The two UV optic fiber probes each with a 10mm path length, were used on the inForm platform for quantitating the drug in the aqueous phase and in the lipid layer. Stirring of the solution was continuous at a rate of 100 rpm through the four sectors. Spectral and pH data were collected with a frequency of 30 s over a period of 2 h.
Contrary to GLpKa, which has a fixed probe with a 10 mm path length that cannot be exchangeable with different path length size tips, Pion inForm is provided with two UV probes, both with a 10 mm path length: a fixed path-length and an exchangeable path-length. These probes were used for the aqueous and the lipid media, respectively. In this way, the UV data collected for the three cocrystals could be quantified using the MECs of orcinol, resorcinol and hydroquinone. Moreover, in the inForm system a greater volume of solution is used (40 mL instead of 15 mL of water used for the GLpKa). Therefore, the signal was not saturated, and the UV spectra for the coformers and the adefovir could be distinguished between them.
In order to study dissolution under conditions that mimic in vivo conditions more closely than other systems, the final set of experiments was carried out in a biphasic dissolution system. The test consists again in a four-pH sectors experiment, but in this case, 1-decanol was added in the second sector (pH 4.0) to simulate the contact with lipidic membranes. Then, the API concentration was monitored simultaneously in both phases through two different optic fiber probes.

[5] = pH 1.5, SD in parenthesis, n = 3
[6] = pH 4.0, SD in parenthesis, n = 3
[7] = pH 5.5, SD in parenthesis, n = 3
[8] = pH 7.4, SD in parenthesis, n = 3

CC(C)(C)C(=O)OCOP(=O)(COCCn1cnc2c(N)ncnc21)OCOC(=O)C(C)(C)C [AD, 9-{2-[Bis(pivaloyloxymethoxy)phosphinylmethoxy]ethyl}adenine]
pKa (pKa determination): 3.78 ± 0.05 | solubility at 30 min ([1]; aqueous buffer, thermodynamic from solid, pH 1.5, SD in parenthesis, n = 3, read-out: AD Solubility): 325 µM (≈ 163 µg/mL) | solubility at 30 min ([1]; aqueous buffer, thermodynamic from solid, pH 4.0, SD in parenthesis, n = 3, read-out: AD Solubility, extrapolated (from Equation (1))): 139 µM (≈ 69.7 µg/mL) | solubility at 30 min ([1]; aqueous buffer, thermodynamic from solid, pH 5.5, SD in parenthesis, n = 3, read-out: AD Solubility, extrapolated (from Equation (1))): 128 µM (≈ 64.2 µg/mL) | solubility at 30 min ([1]; aqueous buffer, thermodynamic from solid, pH 7.4, SD in parenthesis, n = 3, read-out: AD Solubility, extrapolated (from Equation (1))): 123 µM (≈ 61.7 µg/mL) | solubility at 30 min ([1]; pH 1.5, read-out: Solubility for AD indicated by the plateaus of the cocrystal profiles): ~300 µM (≈ 150 µg/mL) | Dissolution Rate [1, 5]: 315 (4) nmols/min | % Dissolved at t = 30 min [1, 5]: 29.0 (1.0) % | Dissolution Rate [1, 6]: 35 (4) nmols/min | % Dissolved at t = 30 min [1, 6]: 5.7% and 5.7 (0.4) % | Dissolution Rate [1, 7]: 21 (4) nmols/min | % Dissolved at t = 30 min [1, 7]: 3.8% and 3.8 (0.6) % | Dissolution Rate [1, 8]: 17 (2) nmols/min | % Dissolved at t = 30 min [1, 8]: 3.3% and 3.3 (0.4) % | Saturation concentration of AD ([1]; rest of pH values (4.0, 5.5, 7.4), particularly pH 5.5 and 7.4): around 100 μM | Share of the initial solid form transformed / other form found on tablet after dissolution ([2]; XRPD of tablet surface): 20% | Final Solid Form on tablet surface after dissolution ([2]; pH 1.5): Form I + AD–dihydrate (80%:20%) | Final Solid Form on tablet surface after dissolution ([2]; pH 4.0): Form I + AD–dihydrate (80%:20%) | Final Solid Form on tablet surface after dissolution ([2]; pH 5.5): Form I + AD–dihydrate (80%:20%) | Final Solid Form on tablet surface after dissolution ([2]; pH 7.4): Form I + AD–dihydrate (80%:20%) | % of API dissolved, four-pH sector test ([3]; pH 1.5 sector): 30% | % of AD in solution, four-pH sector test ([3]; pH 4.0 sector): 25% | % of AD in solution, four-pH sector test ([3]; pH 5.5 sector): 20% | % of AD in solution, four-pH sector test ([3]; pH 7.4 sector): 20% | Transfer of AD towards the organic layer (1-decanol) [4]: even slower

CC(C)(C)C(=O)OCOP(=O)(COCCn1cnc2c(N)ncnc21)OCOC(=O)C(C)(C)C.Cc1cc(O)cc(O)c1 [AD–Orc cocrystal]
Dissolution Rate [1, 5]: 626 (40) nmols/min | % Dissolved at t = 30 min [1, 5]: 39.2 (1.1) % | Dissolution Rate [1, 6]: 147 (47) nmols/min | % Dissolved at t = 30 min [1, 6]: 14.7 (1.6) % | Dissolution Rate [1, 7]: 17 (1) nmols/min | % Dissolved at t = 30 min [1, 7]: 10.6 (2.5) % | Dissolution Rate [1, 8]: 17 (3) nmols/min | % Dissolved at t = 30 min [1, 8]: 13.1 (3.6) % | Final Solid Form on tablet surface after dissolution ([2]; pH 1.5): Cocrystal + AD–dihydrate (90%:10%) | Final Solid Form on tablet surface after dissolution ([2]; pH 4.0): Cocrystal + AD–dihydrate (90%:10%) | Final Solid Form on tablet surface after dissolution ([2]; pH 5.5): Cocrystal + AD–dihydrate (90%:10%) | Final Solid Form on tablet surface after dissolution ([2]; pH 7.4): Cocrystal + AD–dihydrate (90%:10%) | Transfer of AD towards the organic layer (1-decanol) [4]: rapid transfer of AD towards the organic layer

CC(C)(C)C(=O)OCOP(=O)(COCCn1cnc2c(N)ncnc21)OCOC(=O)C(C)(C)C.Oc1cccc(O)c1 [AD–Res cocrystal (Form I)]
Dissolution Rate [1, 5]: 1015 (6) nmols/min | % Dissolved at t = 30 min [1, 5]: 39.3 (1.3) % | Dissolution Rate [1, 6]: 63 (2) nmols/min | % Dissolved at t = 30 min [1, 6]: 16.1 (2.0) % | Dissolution Rate [1, 7]: 19 (1) nmols/min | % Dissolved at t = 30 min [1, 7]: 12.2 (2.0) % | Dissolution Rate [1, 8]: 15 (1) nmols/min | % Dissolved at t = 30 min [1, 8]: 10.9 (2.7) % | Final Solid Form on tablet surface after dissolution ([2]; pH 1.5): Cocrystal (Form I) + AD–dihydrate (95%:5%) | Final Solid Form on tablet surface after dissolution ([2]; pH 4.0): Cocrystal (Form I) + AD–dihydrate (95%:5%) | Final Solid Form on tablet surface after dissolution ([2]; pH 5.5): Cocrystal (Form I) + AD–dihydrate (95%:5%) | Final Solid Form on tablet surface after dissolution ([2]; pH 7.4): Cocrystal (Form I) + AD–dihydrate (95%:5%) | Transfer of AD towards the organic layer (1-decanol) [4]: rapid transfer of AD towards the organic layer

CC(C)(C)C(=O)OCOP(=O)(COCCn1cnc2c(N)ncnc21)OCOC(=O)C(C)(C)C.Oc1ccc(O)cc1 [AD–hydroquinone cocrystal]
Slope of dissolution profile in the first pH sector ([4]; pH 1.5, aqueous phase): inferior slope compared to the cocrystals with resorcinol and orcinol | Transfer of AD towards the organic layer (1-decanol) [4]: slightly slower
